In US12441768B2, “Compositions and methods for treating endometriosis” (EndoMet Biosciences, Inc., priority 2018, dated 2025):
Where a SMILES comes first, the peptide text is derived from it.

Tests used:
[1] = molecular target: Wnt-responsive promoter (TCF/LEF); assay: Wnt-dependent luciferase reporter assay; assay type: cell-based, murine
Procedure, shortened: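 Murine 3T3 fibroblasts carrying a TCF/LEF-driven luciferase reporter, stimulated with Wnt3a in the presence of increasing peptide concentrations or vehicle. Luminescence inhibition gave EC50 values in uM.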

β-catenin = molecular target: T1, β-catenin (Homo sapiens, UniProt P35222); assay: KD50 measurement using competitive fluorescence polarization (FP) with labelled TCF4; assay type: binding; settings: fluorescence polarization, β-catenin; for Kd: read-out: β-Cat FP KD
T1 sequence (P35222 1-781): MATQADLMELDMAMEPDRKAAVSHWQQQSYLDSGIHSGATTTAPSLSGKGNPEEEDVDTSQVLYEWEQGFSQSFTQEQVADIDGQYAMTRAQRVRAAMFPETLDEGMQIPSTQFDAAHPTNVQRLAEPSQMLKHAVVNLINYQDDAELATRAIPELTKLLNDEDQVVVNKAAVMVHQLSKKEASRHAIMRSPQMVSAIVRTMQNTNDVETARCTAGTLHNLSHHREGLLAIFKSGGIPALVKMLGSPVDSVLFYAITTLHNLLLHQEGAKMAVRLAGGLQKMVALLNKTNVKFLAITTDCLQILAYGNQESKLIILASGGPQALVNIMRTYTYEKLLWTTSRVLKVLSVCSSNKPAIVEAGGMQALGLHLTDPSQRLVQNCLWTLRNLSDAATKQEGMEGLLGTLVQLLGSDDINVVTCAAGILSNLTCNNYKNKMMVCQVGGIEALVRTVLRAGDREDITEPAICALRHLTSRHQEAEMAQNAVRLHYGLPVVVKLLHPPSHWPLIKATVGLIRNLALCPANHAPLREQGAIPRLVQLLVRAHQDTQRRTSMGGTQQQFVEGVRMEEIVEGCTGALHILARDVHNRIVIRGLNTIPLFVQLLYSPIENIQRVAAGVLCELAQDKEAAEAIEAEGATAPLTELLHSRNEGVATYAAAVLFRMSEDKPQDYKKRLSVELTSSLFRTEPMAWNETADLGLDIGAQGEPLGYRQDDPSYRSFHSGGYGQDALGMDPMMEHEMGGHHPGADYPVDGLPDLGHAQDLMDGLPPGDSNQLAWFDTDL
Procedure, shortened: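 First, β-catenin at 100 nM is mixed with 5 nM labelled TCF4 at room temperature. Next, compound is added across serial dilutions (10 nM to 30 uM). Finally, fluorescence polarization is measured (ex 470 nm, em 520 nm); experiments are done three times.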

[2] = % Viability non-Wnt responsive cells

| Structure (SMILES) | EC50 [1] [µM] | Kd (β-catenin) [µM] | β-Cat FP Hill slope (β-catenin) | viability [2] [%] |
| --- | --- | --- | --- | --- |
| CC[C@H](C)[C@H](NC(=O)[C@H](CC(C)C)NC(=O)[C@H](Cc1ccccc1)NC(=O)[C@H](Cc1c[nH]c2ccccc12)NC(=O)[C@H](CCSC)NC(=O)[C@H](CCCNC(=N)N)NC(=O)[C@H](CO)NC(=O)[C@@H](N)CCSC)C(=O)N[C@@H](CO)C(=O)N[C@@H](Cc1ccccc1)C(=O)N[C@@H](Cc1c[nH]c2ccccc12)C(=O)N[C@@H](CCC(=O)O)C(=O)NCC(=O)O [compound 57] (H-MSRMWFLISFWEG-OH) | < 7.5 | 1 to 10 | 0.7 | 104 |
| CC[C@H](C)[C@H](NC(=O)[C@H](CC(C)C)NC(=O)[C@H](Cc1ccccc1)NC(=O)[C@H](Cc1c[nH]c2ccccc12)NC(=O)[C@H](CCSC)NC(=O)[C@H](CCCNC(=N)N)NC(=O)[C@H](CO)NC(=O)[C@@H](N)CCSC)C(=O)N[C@@H](CO)C(=O)N[C@@H](Cc1ccccc1)C(=O)N[C@@H](Cc1c[nH]c2ccccc12)C(=O)N[C@@H](CCCNC(=N)N)C(=O)NCC(=O)O [compound 58] (H-MSRMWFLISFWRG-OH) | 22.5 to 30 | > 30 | – | 106 |
| CC[C@H](C)[C@H](NC(=O)[C@H](CC(C)C)NC(=O)[C@H](Cc1ccccc1)NC(=O)[C@H](Cc1c[nH]c2ccccc12)NC(=O)[C@H](CCCCN)NC(=O)[C@H](CCCNC(=N)N)NC(=O)[C@H](CO)NC(=O)[C@@H](N)CCSC)C(=O)N[C@@H](CO)C(=O)N[C@@H](Cc1ccccc1)C(=O)N[C@@H](Cc1c[nH]c2ccccc12)C(=O)NCC(=O)O [compound 59] (H-MSRKWFLISFWG-OH) | > 30 | > 30 | – | 102 |
| CSCC[C@H](NC(=O)[C@H](CCCNC(=N)N)NC(=O)[C@H](CO)NC(=O)[C@@H](N)CCSC)C(=O)N[C@@H](Cc1c[nH]c2ccccc12)C(=O)N[C@@H](Cc1ccccc1)C(=O)N[C@@H](CC(C)C)C(=O)N[C@H](C(=O)N[C@@H](CO)C(=O)N[C@@H](Cc1ccccc1)C(=O)N[C@@H](Cc1c[nH]c2ccccc12)C(=O)NCC(=O)O)[C@@H](C)O [compound 62] (H-MSRMWFLTSFWG-OH) | > 30 | > 30 | – | 104 |

Now from value to compound, other results behind:

| EC50 [1] [µM] | Kd (β-catenin) [µM] | β-Cat FP Hill slope (β-catenin) | Structure (SMILES) | viability [2] [%] |
| --- | --- | --- | --- | --- |
| < 7.5 | > 30 | – | CC[C@H](C)[C@H](NC(=O)[C@H](CC(C)C)NC(=O)[C@H](Cc1ccccc1)NC(=O)[C@H](Cc1c[nH]c2ccccc12)NC(=O)[C@@H](NC(=O)[C@H](CCCNC(=N)N)NC(=O)[C@H](CO)NC(=O)[C@@H](N)CCSC)[C@@H](C)CC)C(=O)N[C@@H](CO)C(=O)N[C@@H](Cc1ccccc1)C(=O)N[C@@H](Cc1c[nH]c2ccccc12)C(=O)NCC(=O)O [compound 55] (H-MSRIWFLISFWG-OH) | 101 |
| 7.5 to 15 | > 30 | – | CSCC[C@H](NC(=O)[C@H](CCCNC(=N)N)NC(=O)[C@H](CO)NC(=O)[C@@H](N)CCSC)C(=O)N[C@@H](Cc1c[nH]c2ccccc12)C(=O)N[C@@H](Cc1ccccc1)C(=O)N[C@@H](CC(C)C)C(=O)N[C@H](C(=O)N[C@@H](CO)C(=O)N[C@@H](Cc1ccccc1)C(=O)N[C@@H](Cc1c[nH]c2ccccc12)C(=O)NCC(=O)O)C(C)C [compound 56] (H-MSRMWFLVSFWG-OH) | 100 |
| 7.5 to 15 | > 30 | – | CC[C@H](C)[C@H](NC(=O)[C@H](CC(C)C)NC(=O)[C@H](CC(C)C)NC(=O)[C@H](Cc1c[nH]c2ccccc12)NC(=O)[C@H](CCSC)NC(=O)[C@H](CCCNC(=N)N)NC(=O)[C@H](CO)NC(=O)[C@@H](N)CCSC)C(=O)N[C@@H](CO)C(=O)N[C@@H](Cc1ccccc1)C(=O)N[C@@H](Cc1c[nH]c2ccccc12)C(=O)NCC(=O)O [compound 60] (H-MSRMWLLISFWG-OH) | 101 |
| 7.5 to 15 | > 30 | – | CC[C@H](C)[C@H](NC(=O)[C@H](CC(C)C)NC(=O)[C@H](Cc1ccccc1)NC(=O)[C@H](Cc1c[nH]c2ccccc12)NC(=O)[C@H](CCSC)NC(=O)[C@H](CCCNC(=N)N)NC(=O)[C@H](CC(N)=O)NC(=O)[C@@H](N)CCSC)C(=O)N[C@@H](CO)C(=O)N[C@@H](Cc1ccccc1)C(=O)N[C@@H](Cc1c[nH]c2ccccc12)C(=O)NCC(=O)O [compound 61] (H-MNRMWFLISFWG-OH) | 100 |
